Values after ≈ are worked out from the molar mass of the structure shown. Values joined by “and” are separate entries in the source; they are usually repeats but may differ in a detail not shown here. Equal entries are not always repeated. Where two headings read alike, the source gives them in different places.
What was measured:
[1] = Acute IV toxicity in mice; format: in vivo; details: 1 mg/kg intravenously, 24 hour observation
[2] = target: T1, Src (Homo sapiens, UniProt P12931); assay: Invitrogen SelectScreen Z-lyte kinase assay, Src; format: biochemical
T1 construct: purchased Invitrogen
T1 sequence (P12931 whole entry): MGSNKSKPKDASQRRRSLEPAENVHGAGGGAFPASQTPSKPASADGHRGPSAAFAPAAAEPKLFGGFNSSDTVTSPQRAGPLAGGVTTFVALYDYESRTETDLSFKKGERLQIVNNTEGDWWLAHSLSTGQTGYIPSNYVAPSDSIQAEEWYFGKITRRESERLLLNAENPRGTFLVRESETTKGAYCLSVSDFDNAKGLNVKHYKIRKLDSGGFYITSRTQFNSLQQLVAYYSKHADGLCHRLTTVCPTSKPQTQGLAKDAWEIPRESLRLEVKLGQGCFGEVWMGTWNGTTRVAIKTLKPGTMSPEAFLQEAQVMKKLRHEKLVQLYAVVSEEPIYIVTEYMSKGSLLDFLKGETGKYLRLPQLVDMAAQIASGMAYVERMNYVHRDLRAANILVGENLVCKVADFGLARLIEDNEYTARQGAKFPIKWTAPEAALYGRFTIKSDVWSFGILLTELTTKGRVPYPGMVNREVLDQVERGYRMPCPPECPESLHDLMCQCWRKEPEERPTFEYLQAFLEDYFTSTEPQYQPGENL

[3] = Pharmacokinetics study in CD-1 mice (IV, PO); format: in vivo; details: for MRT inf: read-out: MRT(0-∞); for concentration at 4 h: time point 4, Mean
Method: A comprehensive PK study was run in CD-1 strain of mice with IV (1 mg/kg) and PO (5 mg/kg) routes of drug delivery and analytical data collection at 10 time points over 24 hours (Medicilon, Study CRL0703).
Blood samples were collected by removing the eyeballs at pre-dose and 0.083, 0.25, 0.5, 1, 2, 4, 6, 8, and 24 hours post-dose. The plasma samples and the dose formulation were stored at −20° C. until bioanalysis.

[4] = test system: UConn; assay: Cell proliferation inhibition, ALCL line UConn; format: cell-based; details: Example 4, least sensitive line; read-out: Proliferation IC50 UConn
Description: Cell proliferation inhibition assays were run for compound (II) with the five target NPM-ALK-dependent ALCL cell lines (Karpas 299, SuDHL-1, JB6, SupM2, UConn) and 12 unrelated cell lines (HEK293, CHO-K1, MCF7, HepG2, H292, H520, H1581, H596, H522, CHA-GO-K1, UMC-11, SK-MES1). […] The pronounced target cell-killing effect is also observed (molecular mechanisms to be determined).

[5] = Aqueous Solubility (PBS, pH 7.4); format: physicochemical; details: for solubility: pH 7.4, PBS
[6] = Plasma Protein Binding (Human), equilibrium dialysis; format: in vitro ADME; details: 1.0E−05 M
[7] = target: hERG (Homo sapiens, UniProt Q12809); assay: hERG standard patch clamp in HEK293 (Cerep ADMET Study 13170); format: cell-based; details: 1 μM
Chain of hERG (Q12809 whole entry): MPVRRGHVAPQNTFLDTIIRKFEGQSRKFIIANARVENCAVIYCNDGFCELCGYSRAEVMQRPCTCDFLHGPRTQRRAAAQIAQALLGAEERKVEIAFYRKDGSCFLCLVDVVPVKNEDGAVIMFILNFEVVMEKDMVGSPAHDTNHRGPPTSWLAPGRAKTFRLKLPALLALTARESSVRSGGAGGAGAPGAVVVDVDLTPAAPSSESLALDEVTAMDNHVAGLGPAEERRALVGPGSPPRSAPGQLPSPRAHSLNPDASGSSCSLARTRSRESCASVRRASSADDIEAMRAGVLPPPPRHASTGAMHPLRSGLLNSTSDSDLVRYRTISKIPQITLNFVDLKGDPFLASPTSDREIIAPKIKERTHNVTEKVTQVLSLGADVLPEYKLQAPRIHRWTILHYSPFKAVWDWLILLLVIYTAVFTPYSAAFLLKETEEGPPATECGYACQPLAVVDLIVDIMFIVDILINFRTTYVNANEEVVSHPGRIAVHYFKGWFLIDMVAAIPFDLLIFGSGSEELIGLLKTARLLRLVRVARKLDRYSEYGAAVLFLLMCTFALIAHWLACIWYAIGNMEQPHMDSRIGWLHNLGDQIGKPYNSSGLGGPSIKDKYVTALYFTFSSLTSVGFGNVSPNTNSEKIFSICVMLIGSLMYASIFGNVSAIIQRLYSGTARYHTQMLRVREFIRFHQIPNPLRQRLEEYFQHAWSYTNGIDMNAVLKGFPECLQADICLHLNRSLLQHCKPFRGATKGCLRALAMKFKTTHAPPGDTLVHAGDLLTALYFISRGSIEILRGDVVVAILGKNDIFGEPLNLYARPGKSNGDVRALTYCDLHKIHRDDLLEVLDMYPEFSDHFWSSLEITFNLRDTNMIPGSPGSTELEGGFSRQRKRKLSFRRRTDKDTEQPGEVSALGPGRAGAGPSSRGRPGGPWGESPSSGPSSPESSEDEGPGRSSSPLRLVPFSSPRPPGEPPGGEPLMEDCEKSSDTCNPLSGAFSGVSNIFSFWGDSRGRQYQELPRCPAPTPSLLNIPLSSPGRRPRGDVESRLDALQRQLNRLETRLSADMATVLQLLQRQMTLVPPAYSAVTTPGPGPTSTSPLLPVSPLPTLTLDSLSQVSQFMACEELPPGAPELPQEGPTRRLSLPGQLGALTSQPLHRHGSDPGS
Method: The cardiac potassium channel, hERG, is responsible for the rapid delayed rectifier current (IKr) in the human ventricle. Inhibition of IKr is the most common cause of cardiac action potential prolongation by noncardiac drugs. Increased action potential duration causes prolongation of the QT interval that has been associated with a dangerous ventricular arrhythmia, torsade de pointer.
Compound (II) was initially tested at 1 μM concentration using a standard patch clamp protocol (Cerep ADMET Study 13170). The hERG channel was expressed in a human embryonic kidney (HEK293) cell line that lacks endogenous hERG channels. […] We have retested compound (II) in hERG assay in a range of lower concentrations to estimate IC50 of hERG inhibition more precisely (Qpatch 16 automated whole-cell patch clamp protocol in CHO-K1 cell line stably expressing hERG, Cerep hERG Study 13292). […] This kind of potency in hERG inhibition should not represent a significant clinical problem since the high degree of hERG inhibition would occur only at the compound concentrations above the expected therapeutic levels.

[8] = Caco-2 (TC7) A-B Permeability test (pH 6.5/7.4); details: human
[9] = CD-1, mouse, plasma, iv, 1 mg/kg, IV 1 mg/kg, CD-1 mice, Mean
[10] = CD-1, mouse, plasma, iv, 1 mg/kg, IV 1 mg/kg, individual animals A-D
[11] = IV 1 mg/kg, individual animals A-D, 1 mg/kg

SMILES: Cc1ccc(F)cc1C[C@H](C)Nc1cc[nH]c(=O)c1-c1nc2cc3c(cc2[nH]1)C(=O)N(CCN1CCCC1)C3 [compound (II)]
- Acute IV toxicity [1]: no signs of toxicity were observed
- IC50 [2]: 32 nM
- AUC(0-inf) [3, 9]: 105 ng·h/mL
- Tmax [3, 9]: 4.8 min
- AUC(0-t) ([3]; CD-1, mouse, plasma, iv, 1 mg/kg, IV 1 mg/kg, CD-1 mice, Mean, read-out: AUC(0-t)): 102 ng·h/mL
- Cmax ([3]; CD-1, mouse, plasma, iv, 1 mg/kg, IV 1 mg/kg, CD-1 mice, Mean, read-out: Cmax): 186 ng/mL
- MRT inf [3, 9]: 1.36 h
- AUC(0-inf) [3, 10]: 102 ng·h/mL
- Tmax [3, 10]: 4.98 min
- AUC(0-t) ([3]; CD-1, mouse, plasma, iv, 1 mg/kg, IV 1 mg/kg, individual animals A-D, read-out: AUC(0-t)): 100 ng·h/mL
- Cmax ([3]; CD-1, mouse, plasma, iv, 1 mg/kg, IV 1 mg/kg, individual animals A-D, read-out: Cmax): 248 ng/mL
- MRT inf [3, 10]: 1.37 h
- concentration at […] ([3]; CD-1, mouse, plasma, iv, 1 mg/kg, IV 1 mg/kg, time point 0.083, Mean): 186 ng/mL
- concentration at […] ([3]; CD-1, mouse, plasma, iv, 1 mg/kg, IV 1 mg/kg, time point 0.083, individual animals A-D): 163 ng/mL
- concentration at […] ([3]; CD-1, mouse, plasma, iv, 1 mg/kg, IV 1 mg/kg, time point 0.35, Mean): 74 ng/mL
- concentration at 0.5 h ([3]; CD-1, mouse, plasma, iv, 1 mg/kg, IV 1 mg/kg, time point 0.5, Mean): 32.9 ng/mL
- concentration at 0.5 h ([3]; CD-1, mouse, plasma, iv, 1 mg/kg, IV 1 mg/kg, time point 0.5, individual animals A-D): 36.8 ng/mL
- concentration at 1 h ([3]; CD-1, mouse, plasma, iv, 1 mg/kg, IV 1 mg/kg, time point 1, Mean): 18.9 ng/mL
- concentration at 1 h ([3]; CD-1, mouse, plasma, iv, 1 mg/kg, IV 1 mg/kg, time point 1, individual animals A-D): 14.1 ng/mL
- concentration at 2 h ([3]; CD-1, mouse, plasma, iv, 1 mg/kg, IV 1 mg/kg, time point 2, Mean): 10.2 ng/mL
- concentration at 2 h ([3]; CD-1, mouse, plasma, iv, 1 mg/kg, IV 1 mg/kg, time point 2, individual animals A-D): 10.4 ng/mL
- concentration at 4 h ([3]; CD-1, mouse, plasma, iv, 1 mg/kg, IV 1 mg/kg): 5.05 ng/mL
- concentration at 6 h ([3]; CD-1, mouse, plasma, iv, 1 mg/kg, IV 1 mg/kg, time point 6, Mean): 2.18 ng/mL
- concentration at 6 h ([3]; CD-1, mouse, plasma, iv, 1 mg/kg, IV 1 mg/kg, time point 6, individual animals A-D): 2.13 ng/mL
- concentration at […] ([3]; CD-1, mouse, plasma, po, 5 mg/kg, PO 5 mg/kg, time point 0.083, Mean): 1.24 ng/mL
- concentration at […] ([3]; CD-1, mouse, plasma, po, 5 mg/kg, PO 5 mg/kg, time point 0.083, individual animals A-D): 2.07 ng/mL
- concentration at […] ([3]; CD-1, mouse, plasma, po, 5 mg/kg, PO 5 mg/kg, time point 0.35, individual animals A-D): 1.21 ng/mL
- concentration at 2 h ([3]; CD-1, mouse, plasma, po, 5 mg/kg, PO 5 mg/kg, time point 2, Mean): 1.01 ng/mL
- concentration at 2 h ([3]; CD-1, mouse, plasma, po, 5 mg/kg, PO 5 mg/kg, time point 2, individual animals A-D): 1.47 ng/mL
- concentration at 4 h ([3]; CD-1, mouse, plasma, po, 5 mg/kg, PO 5 mg/kg): 3.64 ng/mL
- concentration at 6 h ([3]; CD-1, mouse, plasma, po, 5 mg/kg, PO 5 mg/kg, time point 6, individual animals A-D): 1.34 ng/mL
- CL2 ([3]; IV 1 mg/kg, CD-1 mice, Mean): 9.52 L/h/kg
- V2 ([3]; IV 1 mg/kg, CD-1 mice, Mean): 18.63 L/kg
- AUC(0-t) [3, 11]: 96.033 ng·h/mL and 110.999 ng·h/mL and 102.243 ng·h/mL
- AUC(0-∞) [3, 11]: 97.734 µg·h/L and 116.619 µg·h/L and 105.516 µg·h/L
- CL2 [3, 11]: 9.811 L/h/kg and 10.232 L/h/kg and 8.575 L/h/kg and 9.477 L/h/kg
- Cmax [3, 11]: 144.182 ng/mL and 163.492 ng/mL and 186.531 ng/mL
- MRT(0-∞) [3, 11]: 1.295 h and 1.614 h and 1.176 h
- T1/2z [3, 11]: 1.16 h and 1.124 h and 1.81 h and 1.395 h
- V2 [3, 11]: 16.427 L/kg and 16.598 L/kg and 22.401 L/kg and 19.076 L/kg
- Plasma Concentration ([3]; IV 1 mg/kg, time point 0.083, individual animals A-D, 1 mg/kg): 186.53 ng/mL and 248.44 ng/mL and 144.18 ng/mL
- Plasma Concentration ([3]; IV 1 mg/kg, time point 0.5, individual animals A-D, 1 mg/kg): 29.12 ng/mL and 31.99 ng/mL and 33.27 ng/mL
- Plasma Concentration ([3]; IV 1 mg/kg, time point 1, individual animals A-D, 1 mg/kg): 19.36 ng/mL and 19.24 ng/mL and 22.93 ng/mL
- Plasma Concentration ([3]; IV 1 mg/kg, time point 2, individual animals A-D, 1 mg/kg): 8.73 ng/mL and 9.58 ng/mL and 12.30 ng/mL
- Plasma Concentration ([3]; IV 1 mg/kg, time point 4, individual animals A-D, 1 mg/kg): 8.09 ng/mL and 4.47 ng/mL and 3.14 ng/mL and 3.60 ng/mL
- Plasma Concentration ([3]; IV 1 mg/kg, time point 6, individual animals A-D, 1 mg/kg): 1.81 ng/mL and 3.23 ng/mL and 1.77 ng/mL
- Plasma Concentration ([3]; IV 1 mg/kg, time point 8, individual animals A-D): BLQ
- Plasma Concentration ([3]; IV 1 mg/kg, time point 24, individual animals A-D): BLQ
- Volume of distribution relative to total body water ([3]; IV, mice): 26 fold
- Plasma Concentration ([3]; PO 5 mg/kg, time point 0.083, individual animals A-D, 5 mg/kg): 2.19 ng/mL and BLQ (2×)
- Plasma Concentration ([3]; PO 5 mg/kg, time point 0.35, individual animals A-D, 5 mg/kg): BLQ
- Plasma Concentration ([3]; PO 5 mg/kg, time point 0.5, individual animals A-D): BLQ
- Plasma Concentration ([3]; PO 5 mg/kg, time point 1, individual animals A-D): BLQ
- Plasma Concentration ([3]; PO 5 mg/kg, time point 2, individual animals A-D, 5 mg/kg): 1.00 ng/mL and BLQ (2×)
- Plasma Concentration ([3]; PO 5 mg/kg, time point 4, individual animals A-D, 5 mg/kg): 6.06 ng/mL and 1.90 ng/mL and 1.22 ng/mL and 5.39 ng/mL
- Plasma Concentration ([3]; PO 5 mg/kg, time point 6, individual animals A-D, 5 mg/kg): BLQ
- Plasma Concentration ([3]; PO 5 mg/kg, time point 8, individual animals A-D): BLQ
- Plasma Concentration ([3]; PO 5 mg/kg, time point 24, individual animals A-D): BLQ
- half-life ([3]; mouse, plasma, IV 1 mg/kg, CD-1 mice, Mean, read-out: T1/2z (plasma half-life) (converted)): 82.2 min
- bioavailability ([3]; mouse, plasma, PO 5 mg/kg vs IV 1 mg/kg, CD-1 mice): < 1%
- IC50 [4]: 30 nM
- Solubility 1st/2nd ([5]; pH 7.4, 2.0E−04 M, individual data, listed as CRL241): 33.81 μm
- solubility ([5]; pH 7.4, 2.0E−04 M, Tables 9C, 9D, read-out: Solubility Mean): 33.9 µM (≈ 17.9 µg/mL)
- solubility ([5]; pH 7.4, 2.0E−04 M, individual data, read-out: Solubility 1st/2nd): 34 µM (≈ 18 µg/mL)
- solubility at 24 h ([5]; pH 7.4, test concentration 2.0E−04 M, 24 hours, RT): 34 µM (≈ 18 µg/mL)
- % Protein Bound, Mean ([6]; equilibrium dialysis): 94.7%
- % Protein Bound, 1st/2nd ([6]; individual data, listed as CRL241): 94.6% and 94.7%
- % inhibition of tail current [7]: 50.4%
- Papp A→B at 10 µM ([8]; Caco-2, pH 6.5, Caco-2 (TC7) A-B permeability coefficient, pH 6.5/7.4, 10 μM compound): 0.4 ×10⁻⁶ cm/s
- recovery at 10 µM ([8]; Caco-2, pH 6.5, Caco-2 recovery, pH 6.5/7.4, 10 μM compound): 49%
- Papp A→B at 10 µM ([8]; Caco-2, pH 6.5, Mean Permeability, A-B Permeability (TC7, pH 6.5/7.4), test concentration 1.0E−05 M, mean of n = 2): 0.4 ×10⁻⁶ cm/s
- recovery at 10 µM ([8]; Caco-2, pH 6.5, Mean Recovery, A-B Permeability (TC7, pH 6.5/7.4), test concentration 1.0E−05 M, mean of n = 2): 49%
- Papp A→B at 10 µM ([8]; Caco-2, pH 6.5, Permeability 1st, A-B Permeability (TC7, pH 6.5/7.4), test concentration 1.0E−05 M, 1st replicate): 0.41 ×10⁻⁶ cm/s
- Papp A→B at 10 µM ([8]; Caco-2, pH 6.5, Permeability 2nd, A-B Permeability (TC7, pH 6.5/7.4), test concentration 1.0E−05 M, 2nd replicate): 0.44 ×10⁻⁶ cm/s
- recovery at 10 µM ([8]; Caco-2, pH 6.5, Present Recovery 1st, A-B Permeability (TC7, pH 6.5/7.4), test concentration 1.0E−05 M, 1st replicate): 50%
- recovery at 10 µM ([8]; Caco-2, pH 6.5, Present Recovery 2nd, A-B Permeability (TC7, pH 6.5/7.4), test concentration 1.0E−05 M, 2nd replicate): 47%

From patent publication US9249147B2, “Tyrosine kinase inhibitors” (CHEMBRIDGE CORPORATION, priority 2008, dated 2016)
